The record followed here is patent US20020103111A1, “Inhibitors of MAdCAM-1-mediated interactions and methods of use therefor” (Millennium Pharmaceuticals, Inc., priority 1996, published 2002).

pIC50: −log10 of the molar value.

The target of the first experiment is T1, human MAdCAM-1 (huMAdCAM-1-Ig chimera); RPMI 8866 cells expressing α4β7 (Homo sapiens, UniProt P13612+P26010).
T1 construct: RPMI 8866 cells, a B cell lymphoma expressing α4β7; endogenous in cells; host or cells: RPMI 8866 cells (endogenous α4β7)
T1 sequence (P13612 34-1032, change not shown): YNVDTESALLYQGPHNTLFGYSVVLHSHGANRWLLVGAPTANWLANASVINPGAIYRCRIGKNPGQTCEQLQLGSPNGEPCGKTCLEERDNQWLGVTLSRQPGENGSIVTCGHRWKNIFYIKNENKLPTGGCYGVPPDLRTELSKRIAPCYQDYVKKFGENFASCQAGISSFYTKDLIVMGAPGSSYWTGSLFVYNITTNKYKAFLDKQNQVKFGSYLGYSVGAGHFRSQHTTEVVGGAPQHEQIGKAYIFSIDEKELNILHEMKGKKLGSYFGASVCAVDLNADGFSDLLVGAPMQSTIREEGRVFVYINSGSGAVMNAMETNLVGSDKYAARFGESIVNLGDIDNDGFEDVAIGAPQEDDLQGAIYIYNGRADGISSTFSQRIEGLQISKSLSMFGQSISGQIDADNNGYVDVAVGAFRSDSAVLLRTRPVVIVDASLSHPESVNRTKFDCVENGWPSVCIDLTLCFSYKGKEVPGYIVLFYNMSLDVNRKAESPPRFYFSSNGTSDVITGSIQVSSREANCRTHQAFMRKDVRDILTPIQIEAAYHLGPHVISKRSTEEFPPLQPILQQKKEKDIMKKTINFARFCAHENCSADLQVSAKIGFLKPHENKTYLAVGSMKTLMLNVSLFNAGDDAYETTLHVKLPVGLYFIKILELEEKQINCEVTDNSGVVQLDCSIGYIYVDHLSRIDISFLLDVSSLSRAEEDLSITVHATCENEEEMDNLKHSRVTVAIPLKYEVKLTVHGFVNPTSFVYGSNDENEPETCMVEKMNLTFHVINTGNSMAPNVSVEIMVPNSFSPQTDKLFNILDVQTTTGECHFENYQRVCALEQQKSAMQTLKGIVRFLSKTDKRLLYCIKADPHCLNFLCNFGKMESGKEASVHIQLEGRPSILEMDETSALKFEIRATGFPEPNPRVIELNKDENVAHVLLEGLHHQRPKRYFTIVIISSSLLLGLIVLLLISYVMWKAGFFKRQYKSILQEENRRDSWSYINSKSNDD
T1 sequence (P26010 20-798, change not shown): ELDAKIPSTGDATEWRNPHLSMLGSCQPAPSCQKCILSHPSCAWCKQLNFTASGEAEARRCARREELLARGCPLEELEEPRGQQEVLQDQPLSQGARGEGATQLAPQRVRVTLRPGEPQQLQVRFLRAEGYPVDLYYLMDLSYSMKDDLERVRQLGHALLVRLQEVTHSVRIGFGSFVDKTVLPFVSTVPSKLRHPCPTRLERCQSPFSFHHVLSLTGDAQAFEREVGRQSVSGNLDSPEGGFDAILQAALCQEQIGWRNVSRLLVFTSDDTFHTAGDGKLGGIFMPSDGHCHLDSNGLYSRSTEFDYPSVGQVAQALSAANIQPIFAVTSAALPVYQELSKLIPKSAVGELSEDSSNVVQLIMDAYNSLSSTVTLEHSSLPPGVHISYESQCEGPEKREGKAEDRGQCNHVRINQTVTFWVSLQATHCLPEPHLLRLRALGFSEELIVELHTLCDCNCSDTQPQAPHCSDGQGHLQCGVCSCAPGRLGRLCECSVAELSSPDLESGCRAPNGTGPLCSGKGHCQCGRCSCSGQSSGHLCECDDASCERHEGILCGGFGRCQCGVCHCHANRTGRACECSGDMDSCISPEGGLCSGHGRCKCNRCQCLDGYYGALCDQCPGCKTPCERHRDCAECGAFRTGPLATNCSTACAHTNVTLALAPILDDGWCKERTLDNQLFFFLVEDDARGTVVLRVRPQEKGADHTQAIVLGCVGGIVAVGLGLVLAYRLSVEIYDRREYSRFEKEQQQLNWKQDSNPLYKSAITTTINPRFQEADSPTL
In words: huMAdCAM-1-Ig/RPMI 8866 Adhesion Assay. Format: cell-based. To be noted: Table 6, R1-Leu-Asp-Thr, read-out: hMAdCAM IC50. How it is done:
RPMI 8866 cells, a B cell lymphoma expressing α4β7 (a gift from D. Erle; Erle, D. J. et al., J. Immunol., 153:517-528 (1994); Shyjan et al., Journal of Immunology, 1996:2851 (1996) were fluorescently labeled (labeling protocol provided below) using BCECF (Molecular probes #B-1170). Cells were resuspended in an assay buffer consisting of Hanks Balanced Salt Solution (HBSS) supplemented with fetal calf serum (FCS) at a final concentration of 2%, HEPES, pH 7.3 at 25 mM. All reagents in this buffer were supplied from Gibco/BRL.
All assays were performed in 96 well strip well plates from Costar (E.I.A./R.I.A. Strip plate-8 Cat. #2581). […] The plates were incubated at 37° C. for one hour (or at 4° C. overnight) and washed once in the automatic plate washer (50 mM Tris HCl, 0.14 M NaCl and 2.0 mM MnCl2 at pH 7.2) (Bio-Tek EL 404 microplate autowasher). Wells were then blocked with PBS (phosphate buffered saline) and 10% FCS (100 μl/well) for one hour at 37° C. followed by the same wash step as described.
Cells were labeled with BCECF-AM (Molecular Probes, Cat. No. B-1170) at a concentration of 2 μl/ml to a cell suspension of 4×10^6 cells/ml in PBS. The cells were incubated in a 37° C. water bath for 30 minutes. Labeled cells were centrifuged at 700 RPM for 10 minutes, resuspended in assay buffer and the centrifugation step was repeated. The cells were resuspended at a final concentration of 2.5×10^6 cells/ml.
For assays, compounds were diluted as follows in a 96 well polypropylene plate. First, a stock solution of each compound was prepared by dissolving compound in 100% DMSO at 100X final concentration to be tested. 10 μl of the stock was added to 90 μl water for the first test dilution. 50 μl of the first test dilution was added to 50 μl of 10% DMSO in water for the second test dilution. 50 μl of the second test dilution was added to 50 μl of 10% DMSO in water for the third test dilution. 50 μof the third test dilution was added to 50 μl of 10% DMSO in water for the fourth test dilution, and so on, until six test dilutions were prepared.
A stock solution of SmM positive control peptide (L783-1A) was made in 100% DMSO, and subsequently diluted in water 1:10 (10 μl of 5 mM stock plus 90 μl of water) to yield a concentration of 0.5mM. This dilution was then further diluted 1:2 with 10% DMSO (50 μl of the compound and 50 μl of 10% DMSO) for a concentration of 250 μM. These 1:2 dilutions were continued serially until six dilutions were achieved. These dilutions represent 10X stocks as shown in the assay set up below:
The assay was set up by adding materials to huMAdCAM-1-Ig-coated plates as follows:
1) 130 μl/well of assay buffer
2) 20 μl/well of diluted compounds or 10% DMSO (control) or diluted positive control peptide.
3) 50 μl of ECECF-AM-labeled RPMI 8866 cells
The plates were wrapped in foil and incubated for 30 minutes at room temperature on a rotary shaker at 45 RPM.
Plates were washed twice (50 mM Tris HCl, […] and 2.0 mM MnCl2 at pH 7.2) on the microplate autowasher plate washer set as follows:
Plates were read in an IDEX fluoresecent plate reader set to excite at 485 nm and read at 535 nm.
Data was collected in microsoft excel in a format for automatic IC 50 determinations.
As a reminder, the pIC50 is the negative decadic logarithm of the IC50, by convention in mol/L. `CCCCCCOc1ccc(C(=O)N[C@@H](CC(C)C)C(=O)N[C@@H](CC(=O)O)C(=O)N[C@H](C(N)=O)[C@@H](C)O)cc1` [Table 6 example 1]: the pIC50 is 6.24. Regarding `CC(C)C[C@H](NC(=O)c1coc2ccccc2c1=O)C(=O)N[C@@H](CC(=O)O)C(=O)N[C@H](C(N)=O)[C@@H](C)O` [Table 6 example 2], the negative logarithm of the IC50 (pIC50) was 6.14. For the compound `CC(C)C[C@H](NC(=O)c1cccc(Cl)c1)C(=O)N[C@@H](CC(=O)O)C(=O)N[C@H](C(N)=O)[C@@H](C)O` [Table 6 example 3], the negative logarithm of the IC50 (pIC50) was 5.85. Same read-out and setting: next, `CC(C)C[C@H](NC(=O)c1ccc(C(C)(C)C)cc1)C(=O)N[C@@H](CC(=O)O)C(=O)N[C@H](C(N)=O)[C@@H](C)O` [Table 6 example 4]: 5.96. As to `CC(C)C[C@H](NC(=O)c1sccc1Br)C(=O)N[C@@H](CC(=O)O)C(=O)N[C@H](C(N)=O)[C@@H](C)O` [Table 6 example 6], the pIC50 was 5.59. Turning to `CC(C)C[C@H](NC(=O)c1cccc(C(F)(F)F)c1)C(=O)N[C@@H](CC(=O)O)C(=O)N[C@H](C(N)=O)[C@@H](C)O` [Table 6 example 7], the pIC50 was 5.55. Same read-out and setting: the same measure for `CC(C)C[C@H](NC(=O)c1cccc(F)c1F)C(=O)N[C@@H](CC(=O)O)C(=O)N[C@H](C(N)=O)[C@@H](C)O` [Table 6 example 8]: 5.70. As for `Cc1nc(Cl)ccc1C(=O)N[C@@H](CC(C)C)C(=O)N[C@@H](CC(=O)O)C(=O)N[C@H](C(N)=O)[C@@H](C)O` [Table 6 example 9], the pIC50 is 5.96.

The experiment is the same for the next values; noted with them: Table 7, R1-Leu-Asp-Thr-R2, read-out: hMAdCAM IC50.
As to `CC(C)C[C@H](NC(=O)c1cc2ccccc2cn1)C(=O)N[C@@H](CC(=O)O)C(=O)N[C@H](C(=O)N1CCc2ccccc2C1)[C@@H](C)O` [Table 7 example 1], the pIC50 was 6.11. On the same count and under the same terms, next, `CC(C)C[C@H](NC(=O)c1cc2ccccc2cn1)C(=O)N[C@@H](CC(=O)O)C(=O)N[C@H](C(=O)N1CCC(C)OC1C)[C@@H](C)O` (stereo partly drawn) [Table 7 example 3]: 6.01.

For the compound `CC(C)C[C@H](NC(=O)c1cc2ccccc2cn1)C(=O)N[C@@H](CC(=O)O)C(=O)N[C@H](C(=O)NCCC1=CCCCC1)[C@@H](C)O` [Table 7 example 4], the pIC50 was 6.19. With `Cc1cccc(CNC(=O)[C@@H](NC(=O)[C@H](CC(=O)O)NC(=O)[C@H](CC(C)C)NC(=O)c2cc3ccccc3cn2)[C@@H](C)O)c1` [Table 7 example 5], the negative-log IC50 (pIC50) is 6.09. In the case of `CC(C)C[C@H](NC(=O)c1cc2ccccc2cn1)C(=O)N[C@@H](CC(=O)O)C(=O)N[C@H](C(=O)N[C@@H](C)c1cccc2ccccc12)[C@@H](C)O` [Table 7 example 6], the negative-log IC50 (pIC50) is 6.01. Consider `CC(C)C[C@H](NC(=O)c1cc2ccccc2cn1)C(=O)N[C@@H](CC(=O)O)C(=O)N[C@H](C(=O)NC1CC1)[C@@H](C)O` [Table 7 example 7], for which the negative logarithm of the IC50 (pIC50) was 5.42.

Take `CC(C)C[C@H](NC(=O)c1cc2ccccc2cn1)C(=O)N[C@@H](CC(=O)O)C(=O)N[C@H](C(=O)NC1CCCCCCC1)[C@@H](C)O` [Table 7 example 8]: the negative logarithm of the IC50 (pIC50) is 5.89. Still for that read-out and setting: next, `CC(C)C[C@H](NC(=O)c1cc2ccccc2cn1)C(=O)N[C@@H](CC(=O)O)C(=O)N[C@H](C(=O)NCCO)[C@@H](C)O` [Table 7 example 9]: 5.82. For `CC(C)C[C@H](NC(=O)c1cc2ccccc2o1)C(=O)N[C@@H](CC(=O)O)C(=O)N[C@H](C(=O)NC1CCc2ccccc21)[C@@H](C)O` (stereo partly drawn) [Table 7 example 10], the pIC50 was 5.82.

The experiment is the same for the next values; noted with them: read-out: hMAdCAM IC50, Table 7, R1-Leu-Asp-Thr-R2.
For `CC(C)C[C@H](NC(=O)c1cc2ccccc2cn1)C(=O)N[C@@H](CC(=O)O)C(=O)N[C@H](C(=O)N1CCC(=O)CC1)[C@@H](C)O` [Table 7 example 2], the negative-log IC50 (pIC50) is 6.03.
